{"source": "ChEMBL document CHEMBL3832083", "test": "clinical", "conditions": "human, in vivo, po"}
{"smiles": "Nc1nc2ccc(OC(F)(F)F)cc2s1", "note": "[RILUZOLE]", "values": [{"measurement": "fraction unbound", "result": 0.04}]}
